In brackets after ≈: the same amount, converted by molar mass. One block for each molecule: values may come before it.
What was measured:
protein kinase C (PKC) = details: variously reported; acting at the regulatory subunit of PKCs; cited from earlier work
sphingosine kinase = details: variously reported in the literature; cited from earlier work
[1] = Solubility/miscibility studies of safingol in solvent systems
Method: (§1) The following solubility/miscibility studies were performed with safingol at various concentrations.

Fisher rats = details: Group III: 4-HPR 61 mg/kg/d D1-5 continuous iv, safingol 0; 3 male rats

Method for physchem: as §1

solubility (physchem; 50:50 ethanol:WFI with lactic acid, aqueous with cosolvent or surfactant or cyclodextrin): ~50000 µg/mL (≈ 166 mM)
solubility (physchem; 60:40 t-BuOH/WFI, aqueous with cosolvent or surfactant or cyclodextrin): 15700 µg/mL (≈ 52 mM)
solubility (physchem; DMAC, organic solvent or mixture): 6600 to 7400 µg/mL (≈ 21.9 to 24.5 mM)
solubility (physchem; Diluent 12, organic solvent or mixture): 7220 µg/mL (≈ 23.9 mM)
solubility (physchem; PEG 300, organic solvent or mixture): 1010 to 1060 µg/mL (≈ 3.35 to 3.52 mM)
solubility (physchem; ethanol, organic solvent or mixture): 7500 to 8200 µg/mL (≈ 24.9 to 27.2 mM)
solubility (physchem; lactic acid in WFI with 5 mg/mL mannitol, aqueous buffer): 10000 µg/mL (≈ 33.2 mM)
solubility (physchem; lactic acid/WFI, aqueous buffer): > 10000 µg/mL
solubility (physchem; lactic acid/ethanol, organic solvent or mixture): ~20000 µg/mL (≈ 66.3 mM)
solubility (physchem; propionic acid/WFI, aqueous buffer): ≥ 5000 µg/mL
solubility (physchem; propylene glycol, organic solvent or mixture): 1060 to 1350 µg/mL (≈ 3.52 to 4.48 mM)
solubility (physchem; t-butanol, organic solvent or mixture): > 25000 µg/mL
Precipitate at 2° C. to 8° C. ([1]; 50:50 Ethanol:WFI with lactic acid): precipitate formation
Solubility (Result) ([1]; Castor oil): not soluble
Solubility (Result) ([1]; Citric acid/WFI): not soluble
Solubility (Result) ([1]; DMSO): not soluble
Solubility (Result) ([1]; HC1/WFI): not soluble
Solubility (Result) ([1]; HCl/Ethanol): not soluble
Precipitate at 2° C. to 8° C. ([1]; Lactic acid in 2% EPL in WFI): no precipitate
Solubility (Result) ([1]; Lactic acid in 2% EPL in WFI): solubility similar to lactic without EPL
Precipitate at 2° C. to 8° C. ([1]; Lactic acid/Ethanol): precipitate formation
Precipitate at 2° C. to 8° C. ([1]; Lactic acid/WFI): precipitate formation
Solubility (Result) ([1]; Maleic acid/WFI): not soluble
Solubility (Result) ([1]; Malic acid/WFI): not soluble
Solubility (Result) ([1]; Methanesulfonic acid/Ethanol): not soluble
Solubility (Result) ([1]; Neobee oil): Not soluble
Temperature at which later found to be soluble ([1]; Neobee oil): ~80 °C
Solubility (Result) ([1]; Pluronic F-68/WFI): not soluble
Precipitate at 2° C. to 8° C. ([1]; Propionic acid/WFI): precipitate formation
Solubility (Result) ([1]; Safflower oil, attempted: 0.5 mg/mL): Not soluble (attempted: 0.5 mg/mL)
Solubility (Result) ([1]; Sesame oil, attempted: 0.5 mg/mL): Not soluble (attempted: 0.5 mg/mL)
Solubility (Result) ([1]; Sodium Lactate/WFI): not soluble
Solubility (Result) ([1]; Soybean oil): Not soluble
Temperature at which later found to be soluble ([1]; Soybean oil): ~80 °C
Solubility (Result) ([1]; Tartaric acid/WFI): not soluble
Solubility (Result) ([1]; Tricaprylin, attempted: 0.5 mg/mL): Not soluble (attempted: 0.5 mg/mL)
Solubility (Result) ([1]; Tween-80): not soluble
Solubility (Result) ([1]; Valium solvent, attempted: 0.5 mg/mL): Not soluble (attempted: 0.5 mg/mL)
Solubility (Result) ([1]; Vitamin E (α-tocopherol)): not soluble
Effect of ethanol on solubility of safingol ([1]; lactic acid/water solutions): substantially increased
Compound: CCCCCCCCCCCCCCC[C@H](O)[C@@H](N)CO [Safingol, (2S,3S)-2-amino-1,3-octadecanediol]
Inhibition of protein kinase C (PKC), including PKCζ (protein kinase C (PKC)): inhibitor
Inhibition of sphingosine kinase (sphingosine kinase): inhibitor
Solubility (Result) ([1]; Methanesulfonic acid/WFI): not soluble, but the appearance of the safingol changed,
Precipitates on chilling, versus non-ethanol-containing solutions ([1]; ethanol-containing safingol/lactic acid solutions chilled to 2-8° C., then warmed to room temperature): reduced in quantity and dissolved much more readily

Compound: CC1=C(/C=C/C(C)=C/C=C/C(C)=C/C(=O)Nc2ccc(O)cc2)C(C)(C)CCC1 [4-HPR, fenretinide]
Toxicity: din path (Fisher rats): din path: normal
Toxicity: dinical signs (Fisher rats): dinical signs: normal
Toxicity: necropsy: discoloration(lung) (Fisher rats): 3/3
Toxicity: necropsy: emaciation (Fisher rats): 1/3

Source: patent US7476692B2, “Pharmaceutical compositions of safingol and methods of using the same” (priority 2003, dated 2009)
